{"source": "patent US3953483A", "about": "“17-Nor-6-methyl-steroids” (Takeda Chemical Industries, Ltd., priority 1973, dated 1976)", "key": {"anti-androgenic activity": {"tested_on": "anti-androgenic activity", "conditions": "known compounds, background; cited from earlier work"}, "liver": {"tested_on": "liver", "conditions": "known compound, background; cited from earlier work"}, "[1]": {"tested_on": "seminal vesicles, ventral prostate and dorsal prostates", "assay": "anti-androgenic activity: inhibition of testosterone propionate-induced weight increase of secondary sex structures in castrated male rats, oral dosing", "type": "in vivo, rats (SD-JCL strain)", "conditions": "for Percent inhibition: Dorsal prostate / Percent inhibition: Seminal vesicles / Percent inhibition: Ventral prostate / Weight of organs: Dorsal prostate / Weight of organs: Seminal vesicles / Weight of organs: Ventral prostate: 5 rats; for Weight of organs: Dorsal prostate / Weight of organs: Seminal vesicles / Weight of organs: Ventral prostate: average ± standard error", "experimental": "The following is the assay data on the anti-androgenic activity of 6-methylandrosta-4,6-dien-3-one(the test compound), a compound obtainable by the method of this invention. Testing procedure: Male rats of the SD-JCL strain, 21 days of age (body weights 40-55 g.) are castrated and, beginning on the next day, a daily dose of the test compound is suspended in 0.5 ml. of aqueous solvent and orally administered via a gastric catheter once daily, every day excepting Sundays, for a total of 10 times (12 days). Simultaneously with the administration of the test compound, a daily dose of 0.15 mg. of testosterone propionate is dissolved in 0.2 ml. of sesame oil and subcutaneously injected into the dorsal region of the neck.\nOn the day following the last day of administration, the rats are exsanguinated under ether anaesthesia and the seminal vesicles, ventral prostate and dorsal prostates are weighed. The anti-androgenic potency of the test compound is determined as follows.\ndosed with testosterone\n- dosed with testosterone\n(%) dosed with testosterone"}, "[2]": {"conditions": "test compound 9.6mg. × 10 oral + testosterone propionate 0.15mg. × 10 s.c."}, "[3]": {"conditions": "test compound 38.4mg. × 10 oral + testosterone propionate 0.15mg. × 10 s.c."}, "[4]": {"conditions": "testosterone propionate 0.15mg. × 10 s.c. alone"}}, "note": "Entries after “also recorded” stand apart in the source; their conditions may differ."}
{"molecule": "C[C@]12CC[C@H]3[C@@H](CCC4=CC(=O)CC[C@@H]43)[C@@H]1C[C@H](C1CCCCC1)[C@@H]2O", "note": "[16β-cyclohexyl-17β-hydroxyestr-4-en-3-one]", "values": [{"measurement": "effectiveness by oral administration", "setting": "anti-androgenic activity", "result": "little effective by oral administration"}]}
{"molecule": "CC[C@H]1C[C@H]2[C@@H]3CCC4=CC(=O)CC[C@@H]4[C@H]3CC[C@]2(C)[C@H]1O", "note": "[16β-ethyl-17β-hydroxyestr-4-en-3-one]", "values": [{"measurement": "effectiveness by oral administration", "setting": "anti-androgenic activity", "result": "little effective by oral administration"}]}
{"molecule": "CCCCCC(=O)O[C@]1(C(C)=O)CC[C@H]2[C@@H]3CCC4=CC(=O)CC[C@@H]4[C@H]3CC[C@@]21C", "note": "[17α-caproyloxy-19-norprogesterone]", "values": [{"measurement": "side effect", "setting": "liver", "result": "causes `fatty liver` as a side effect"}]}
{"molecule": "CC[C@H]1C[C@H]2[C@@H]3CCC4=CC(=O)CC[C@@H]4[C@H]3CC[C@]2(C)[C@H]1OC(C)=O", "note": "[17β-acetyloxy-16β-ethylestr-4-en-3-one]", "values": [{"measurement": "effectiveness by oral administration", "setting": "anti-androgenic activity", "result": "little effective by oral administration"}]}
{"molecule": "CC1=C[C@H]2[C@@H]3CCC[C@@]3(C)CC[C@@H]2[C@@]2(C)CCC(=O)C=C12", "note": "[test compound, 6-methylandrosta-4,6-dien-3-one]", "values": [{"measurement": "inhibition of weight increases of secondary sex structures / anti-androgenic activity (in words)", "setting": "[1]; oral, caused by testosterone propionate", "result": "significantly inhibits the weight increases of various secondary sex structures; also recorded: the degree of inhibition (percent inhibition) being proportional to the dosage; also recorded: potent anti-androgenic activity"}, {"measurement": "Percent inhibition: Dorsal prostate", "setting": "[1]; [2]", "result": 38, "unit": "%"}, {"measurement": "Percent inhibition: Seminal vesicles", "setting": "[1]; [2]", "result": 53, "unit": "%"}, {"measurement": "Percent inhibition: Ventral prostate", "setting": "[1]; [2]", "result": 34, "unit": "%"}, {"measurement": "Weight of organs: Dorsal prostate", "setting": "[1]; [2]", "result": "62 ± 3", "unit": "mg"}, {"measurement": "Weight of organs: Seminal vesicles", "setting": "[1]; [2]", "result": "164 ± 15", "unit": "mg"}, {"measurement": "Weight of organs: Ventral prostate", "setting": "[1]; [2]", "result": "100 ± 4", "unit": "mg"}, {"measurement": "Percent inhibition: Dorsal prostate", "setting": "[1]; [3]", "result": 59, "unit": "%"}, {"measurement": "Percent inhibition: Seminal vesicles", "setting": "[1]; [3]", "result": 77, "unit": "%"}, {"measurement": "Percent inhibition: Ventral prostate", "setting": "[1]; [3]", "result": 53, "unit": "%"}, {"measurement": "Weight of organs: Dorsal prostate", "setting": "[1]; [3]", "result": "44 ± 2", "unit": "mg"}, {"measurement": "Weight of organs: Seminal vesicles", "setting": "[1]; [3]", "result": "82 ± 5", "unit": "mg"}, {"measurement": "Weight of organs: Ventral prostate", "setting": "[1]; [3]", "result": "74 ± 4", "unit": "mg"}]}
{"molecule": "CCC(=O)O[C@H]1CC[C@H]2[C@@H]3CCC4=CC(=O)CC[C@]4(C)[C@H]3CC[C@]12C", "note": "[testosterone propionate, reference compound]", "values": [{"measurement": "Weight of organs: Dorsal prostate", "setting": "[1]; [4]", "result": "96 ± 3", "unit": "mg"}, {"measurement": "Weight of organs: Seminal vesicles", "setting": "[1]; [4]", "result": "337 ± 27", "unit": "mg"}, {"measurement": "Weight of organs: Ventral prostate", "setting": "[1]; [4]", "result": "147 ± 7", "unit": "mg"}]}
